Data as given in patent publication US12459891B2, “1-[1-(4-benzyloxy-3,5-difluoro-benzoyl)-4-fluoro-pyrrolidine-2-carbonyl]-pyrrolidine-2-carbonitrile” (ACCURE THERAPEUTICS, S.L., priority 2020, dated 2025).

Experiments:
[1] = Parallel artificial membrane permeability assay (PAMPA), BBB passive diffusion; format: in vitro ADME; details: pH 7.4, 4 hours; for % R (compound retention of the phospholipid membrane), PAMPA / % T (percentage of transport), PAMPA: 200 μM; for Papp at 4 h, 200 μM: pig, PAMPA, room temperature, read-out: Effective permeability Pe
Description: Parallel artificial membrane permeability assay (PAMPA) described in Kansy M et al., J. Med. Chem. 1998; 41(7):1007-10 was used to determine the capacity of compounds to cross the Blood-Brain Barrier (BBB) by passive diffusion (Di L et al., Eur. J. Med. Chem. 2003; 38(3):223-32). The effective permeability (Pe) of the compounds was measured at an initial concentration of 200 μM. The buffer solution was prepared from a commercial concentrated one following the manufacturer's instructions. pH was adjusted to 7.4 using a 0.5 M NaOH solution. A stock solution of new compound was prepared in DMSO and diluted with buffer solution to a final 200 μM concentration (0.5% DMSO content). The PAMPA sandwich was separated and each donor well was filled with 200 μL of the compound solution. The acceptor plate was placed into the donor plate, ensuring that the underside of the membrane was in contact with buffer. 4 μL of the mixture of phospholipids (20 mg/mL) in dodecane was added to the filter of each well, and 200 μL of buffer solution was added to the each acceptor well. The plate was covered and incubated at room temperature in a saturated humidity atmosphere for 4 hours under orbital agitation at 100 rpm. After 4 hours, the contents of the acceptor and donor compartments were analyzed by HPLC: 150 μL of each well from the donor plate and 150 μL of each well from the acceptor plate were transferred to HPLC vials, injecting each sample into a reverse-phase C18 column (150 mm×4.6 mm×5 μm, 100 Å) (100 μL/injection from the acceptor wells, 10 μL/injection from the donor wells and for t0 references). Transport was also confirmed by MALDI-TOF spectrometry.
The phospholipid mixture used was a porcine polar brain lipid extract, provided by Avanti polar lipids, with the following composition: 12.6% phosphatidylcholine (PC), 33.1% phosphatidylethanolamine (PE), 18.5% phosphatidylserine (PS), 4.1% phosphatidylinositol (PI), 0.8% phosphatidic acid and 30.9% of other compounds.
The effective permeability (Pe) after 4 hours was calculated using equation 2, the percentage of transport (T %) was calculated using equation 3 and the compound retention (R %) of the phospholipid membrane using equation 4:
[formula] [formula] [formula] wherein: • t is time (h) • CA(t) is the compound concentration in the acceptor well at time t, CD(t) is the compound concentration in donor well at time t • and CD(t0) is the compound concentration in the donor well at t0.

[2] = Microsomal stability (rat); format: in vitro ADME; details: Sprague-Dawley, pooled liver microsomes, pH 7.4; rat liver microsomes 0.5 mg/mL, 1 μM compound, 37° C., NADPH regenerating system
Description: The stability of the compounds in rat (Sprague-Dawley) pooled liver microsomes (catalog number 452501) was investigated according to the instructions provided by the vendor (BD Bioscience). A stock solution (500 μM) of the compound to be tested was prepared in DMSO. Two μL of the compounds were incubated at 1 μM final concentration in a mixture of: • 713 μL of H2O • 200 μL of 0.5 M potassium phosphate (pH 7.4) • 50 μL of NADPH regenerating system solution A (BD Bioscience, catalog number 451220) • 10 μL of NADPH regenerating system solution B (BD Bioscience, catalog number 451200)
The resulting mixture was warmed to 37° C. for 5 min. After which, 25 μL of liver microsomes were added at a final concentration of 0.5 mg/mL. The mixture was incubated at 37° C. with orbital agitation (100 rpm). At selected time points, 100 μL aliquots were extracted and mixed with 100 μL of acetonitrile. The obtained precipitate was shake in a vortex for 1 minute. Samples were kept at 4° C. for 30 min, after which, samples were centrifuged at 20,000×g at 4° C. for 30 min. The supernatant was filtered out and subsequently analysed by UPLC-MS. All stability tests were performed in duplicates.

[3] = PK in mice after intravenous bolus; format: in vivo; details: male, Swiss Albino, mouse, plasma, 1 mg/kg intravenous bolus; for Vd: read-out: Vss
Description: The pharmacokinetics of the compounds following intravenous bolus administration was conducted in male Swiss Albino mice. The study was conducted in accordance with the guidelines of the Institutional Animal Ethics Committee (IAEC) and in accordance with the requirements of Committee for the Purpose of Control and Supervision of Experiments on Animals (CPCSEA), India.
Study was conducted in 12 mice per compound using sparse sampling design (n=3/time point) to produce composite profile. The compounds were dissolved in 2% Twee80® in saline (0.9 NaCl) at a concentration of 0.5 mg/mL. Mice were administered a single dose of 1 mg/kg of the compound solution by intravenous bolus through lateral tail vein using 1 mL BD syringe guided with 26G needle at a dose volume of 2 mL/kg.
Blood samples were collected (n=3 per time point) at 0.083, 0.25, 0.5, 1, 2, 4, 6, 8, 24 and 48 h post-dose. At each time point, 120 μL of blood was collected by retro orbital plexus puncture and transferred into a labeled microfuge tube containing 200 mM K2EDTA solution (20 μL per mL of blood). The blood samples were centrifuged at 5000×g for 5 min at 4±2° C. Plasma samples were stored below −60° C. until bioanalysis.
Plasma samples were analyzed using a LC-MS/MS method with LLOQ of 1.06 ng/mL. Pharmacokinetic parameters in plasma were calculated using the non-compartmental analysis tool of the validated Phoenix WinNonlin® software (version 6.3). The area under the concentration time curve (AUClast) was calculated by linear trapezoidal rule. Peak plasma concentration (Cmax) and time to reach the peak plasma concentration (Tmax) were the observed values. Clearance (CL) and volume of distribution (Vss) were predicted values.

| Compound | % R (compound retention of the phospholipid membrane), PAMPA [1] [%] | % T (percentage of transport), PAMPA [1] [%] | Papp at 4 h, 200 μM [1] [nm/s] | half-life at 1 μM [2] [min] | AUC(0-t) [3] [µg·h/mL] | clearance [3] [L/h/kg] | Vd [3] [L/kg] |
| --- | --- | --- | --- | --- | --- | --- | --- |
| COc1cc(C(=O)N2CC(F)(F)C[C@H]2C(=O)N2CCC[C@H]2C#N)cc(OC)c1OCc1ccccc1 [Comp Ex. 3, (S)-1-((2S)-1-(4-(benzyloxy)-3,5-dimethoxybenzoyl)-4,4-difluoropyrrolidine-2-carbonyl)pyrrolidine-2-carbonitrile] | 10.93 | 29.92 | 221 | < 5 | 0.131 | 7.56 | 0.64 |
| N#C[C@@H]1CCCN1C(=O)[C@@H]1CC(F)(F)CN1C(=O)c1ccc(OCc2ccccc2)c(F)c1 [Comp Ex. 4, (S)-1-((S)-1-(4-(benzyloxy)-3-fluorobenzoyl)-4,4-difluoropyrrolidine-2-carbonyl) pyrrolidine-2-carbonitrile] |  | 10.43 |  | < 5 | 0.0227 | 41.8 | 9.06 |
| N#C[C@@H]1CCCN1C(=O)[C@@H]1C[C@@H](F)CN1C(=O)c1cc(F)c(OCc2ccccc2)c(F)c1 [Example 1, (S)-1-((2S,4R)-1-(4-(benzyloxy)-3,5-difluorobenzoyl)-4-fluoropyrrolidine-2-carbonyl)pyrrolidine-2-carbonitrile] | 24 | 18.1 | 47 | 12 | 0.127 | 5.98 | 1.19 |
